Structure (SMILES)	melting point [°C]
CSc1cc(Br)ccc1C=O	81 to 83
C#CCNC(=O)CN1C(=O)C(=O)c2cc(Cl)ccc21	267 to 269
C=CC(=O)Nc1cc(Cl)c(OC)cc1OC	142 to 144
CCOC(=O)c1snc(C(N)=O)c1N	205 to 207
CS(=O)(=O)CCCC(=O)O	78 to 80
CC(NC(=O)c1ccco1)C(=O)O (configuration not stated)	100 to 102
OC1CCCC1n1cccn1 (configuration not stated)	48 to 50
CC(=O)c1sc(C(C)(C)C)nc1C	66 to 68
CC(C)Oc1ccc(C(N)=O)cc1	166 to 168
CC1CCCCC1NC(=O)NC(=O)CCl (configuration not stated)	126 to 128
NS(=O)(=O)c1ccc(C(=O)CBr)cc1	149 to 151
COC(=O)c1ccncc1C(=O)O	175 to 177
O=C(O)c1cc([N+](=O)[O-])c(F)cc1Br	171 to 173
CCOC(=O)/C(C#N)=C\Nc1cc(OC)ccc1OC	131 to 133
CC(=O)Nc1cncc(C(=O)NN)c1	229 to 231
NNC(=O)Nc1ccc2c(c1)OCO2	164 to 166
O=S(=O)(c1ccc2c(c1)CCCN2)N1CCCCC1	121 to 123

Structure (SMILES)	melting point [°C]
N#Cc1ccc(CN2CCNCC2)cc1	214 to 216
Cc1nnc(S)n1C	112 to 115
CCOC(=O)CO/N=C(\C(=O)O)c1cc[nH]n1	128 to 130
CCCN1C(=O)CC(=O)NC1=S	127 to 129
COCCNC(=O)Nc1ccc(N)cc1	135 to 137
N#Cc1ncn(CC(=O)O)n1	96 to 98
Cc1noc(C=Cc2ccc(F)cc2)c1N	167 to 169
CS(=O)(=O)NC1(C(=O)O)CCCCC1	114 to 116
CC(C)(C)OC(=O)N1CCC(OCC(=O)O)CC1	102 to 104
CCn1c(=O)[nH]c(=O)c2cc(C(=O)O)cnc21	316 to 318
CC(C(=O)O)n1cccn1 (configuration not stated)	96 to 98
COc1ccc(-c2noc(CCl)n2)c(OC)c1	76 to 80
CC(Cl)C(=O)NCC(F)(F)F (configuration not stated)	42 to 44
CC(C)(C)OC(=O)N1CCN(C(=O)C2CCCN2)CC1 (configuration not stated)	219 to 221
O=C1OCCc2cnc3ccnn3c21	213 to 215
NS(=O)(=O)CC(F)(F)F	97 to 99

Now from value to molecule:

melting point [°C]	Structure (SMILES)
322 to 324	Cc1c(Cl)cccc1-n1c(S)nnc1-c1ccncc1
112 to 114	O=Cc1nc(-c2cc(Cl)ccc2Cl)cs1
169 to 171	CC1(c2ccc(C(F)(F)F)cc2)NC(=O)NC1=O (configuration not stated)
144 to 146	O=Cc1c(-c2ccccc2)nc2ccccn12
98 to 100	COC(=O)c1sc2ccccc2c1S(=O)(=O)Cl
218 to 220	NNc1ccc(S(=O)(=O)Nc2ccccn2)cn1
139 to 141	O=C(O)c1cccc(Br)c1I
155 to 157	Nc1cc(-c2cccs2)nn1CCO
74 to 76	Nc1ccccc1C(=O)N1CCOCC1
149 to 151	O=C(O)c1cn(-c2cccc(C(F)(F)F)c2)nn1
140 to 142	O=C(O)CCc1csc2ccccc12
152 to 154	Ic1ccc(OCc2ccncc2)cc1
118 to 120	O=C(CCl)N1CCc2ccccc21
89 to 91	Cc1ccc(C)c(C(=O)c2cccc(S(C)(=O)=O)c2)c1
116 to 118	Cc1cc(CC(=O)O)n[nH]1
230 to 232	COC(=O)c1ccc2[nH]cc(C=O)c2c1
159 to 161	Cc1cc(N)n(-c2cc(C(F)(F)F)ccc2Cl)n1
70 to 72	CC(Sc1ccccn1)C(=O)O (configuration not stated)
264 to 266	O=C1NC(=O)C2(Cc3ccccc3C2)N1
86 to 88	OCc1cncc2ccccc12

melting point [°C]	Structure (SMILES)
91 to 93	CC(Oc1ccccc1Cc1ccccc1)C(=O)O (configuration not stated)
190 to 195	CC(=O)Nc1ccc2c(CCl)cc(=O)oc2c1
195 to 197	Cc1cc(C(=O)O)c2c(C)nn(-c3ccccc3)c2n1
144 to 146	OCc1cc(-c2ccccc2)[nH]n1
110 to 114	O=C(O)CCNS(=O)(=O)c1ccccc1
183 to 187	COc1ccc2c(CC(=O)O)cc(=O)oc2c1
141 to 146	Nc1cc(C(=O)O)cc(C(F)(F)F)c1
44 to 46	NCc1ccnc(-n2cccn2)c1
134 to 136	Nc1nc2c(ccc3ccccc32)s1
133 to 135	CCOc1ccc(C=C(C(=O)O)c2cccs2)cc1
139 to 141	CC(C)(C)Oc1ccc(C(=O)O)cc1
67 to 69	CNC(c1ccc(Cl)cc1)c1ncccn1 (configuration not stated)
239 to 241	O=C(O)C(CO)NS(=O)(=O)c1ccc(Br)cc1 (configuration not stated)
228 to 230	O=C(O)c1ccc(Sc2ccccc2)c([N+](=O)[O-])c1
81 to 83	O=C(O)CSCC(=O)c1ccc(Cl)cc1
133 to 135	Nc1ccccc1C(=O)Nc1cccc(C(F)(F)F)c1
175 to 177	CC1=NN(Cc2ccccc2)C(=O)C1
83 to 85	CC(=O)c1ccc(N)cc1C
120 to 122	Nc1ccc(NC(=O)c2ccc(F)cc2)cc1C(F)(F)F
